{
  "source": "patent US20090175805A1",
  "about": "“Neuraminidase Inhibitors and uses thereof” (priority 2006, published 2009)",
  "key": {"PAO1 biofilm formation": {"tested_on": "PAO1 biofilm formation", "assay": "Biofilm assay, crystal violet staining in 96-well microtiter plates", "assay_type": "cell-based, P. aeruginosa", "details": "various concentrations of inhibitor, absorbance at 540 nm", "protocol": "An overnight culture of bacteria grown in LB with shaking was diluted 1:100, and 100 μl aliquots added to 96-well microtiter plates incubated for 24-48 hours at 37° C. (O'Toole et al., (2000) J. Bacteriol. 182:425-431; O'Toole et al., (2000) Annu. Rev. Microbiol. 54:49-79). 0.1% crystal violet was added to each well for 15 minutes, rinsed three times with water then released with the addition of 200 μl of 95% ethanol. Absorbance was determined at 540 nm. For experiments with inhibitors, the following modifications in the assay were used: for oseltamivir (Tamiflu) (Roche, Nutley, N.J.), an overnight culture of bacteria was diluted 1:100 in different doses of inhibitor in LB and 100 μl aliquots plated and assayed as above; for peramivir (BioCryst, Birmingham, Ala.), an overnight culture of bacteria was diluted 1:100 in different doses of inhibitor in LB and incubated at room temperature for 48 hours then diluted 1:2 in LB and 100 μl aliquots plated and assayed as above (McKimm-Breschkin et al., (2003) Antimicrob. Agents. Chemother. 47:2264-2272; Sidwell et al., (2002) Expert Opin. Investig. Drugs 11:859-869). Each sample was tested in sextuplicate and the assay was repeated on three separate occasions and representative data shown. A mean and standard deviation were calculated and statistical significance determined using a two-tailed unpaired t test (Graph Pad Instat version 3.0, Graphpad Software, San Diego, Calif.) to test the null hypothesis that there was no difference in the amount of biofilm production under each test condition, as compared to the media alone or untreated control."}, "[1]": {"tested_on": "PAO1 enzyme (P. aeruginosa PAO1 neuraminidase)", "assay": "Neuraminidase assay with fluorescent substrate 2'-(4-methylumbelliferyl)-α-D-N-acetylneuraminic acid", "assay_type": "biochemical", "details": "peramivir 0.25 and 2.5 μM; 24-48 hours; fluorescence ex 360 nm / em 465 nm", "protocol": "(§1) The PAO1 enzyme (10 μg/ml) was overexpressed and purified from E. coli using the pET28a vector (Novagen, San Diego, Calif.) and a control V. cholera neuraminidase (0.1 U/ml) (Calbiochem, San Diego, Calif.) were incubated with the fluorescent substrate 2′-(4-methylumbelliferyl)-α-D-N-acetylneuraminic acid (Sigma-Aldrich, St. Louis, Mo.) (25 μM in 0.9% NaCl) with or without peramivir (0.25 and 2.5 μM) for 24-48 hours and fluorescence read at excitation 360 nm and emission 465 nm. Each data point was performed in sextuplicate. A mean and standard deviation were calculated and statistical significance determined using a one-way analysis of variance with Bonferroni's post test (Graph Pad Instat version 3.0, Graphpad Software, San Diego, Calif.) to test the null hypothesis that there was no difference in the amount of fluorescence under each test condition, as compared to the untreated control."}, "V. cholera neuraminidase": {"target": "T1, V. cholera neuraminidase (Vibrio cholerae serotype O1, UniProt P0C6E9)", "T1 construct": "purchased Calbiochem, San Diego, Calif", "T1 sequence (P0C6E9 25-781)": "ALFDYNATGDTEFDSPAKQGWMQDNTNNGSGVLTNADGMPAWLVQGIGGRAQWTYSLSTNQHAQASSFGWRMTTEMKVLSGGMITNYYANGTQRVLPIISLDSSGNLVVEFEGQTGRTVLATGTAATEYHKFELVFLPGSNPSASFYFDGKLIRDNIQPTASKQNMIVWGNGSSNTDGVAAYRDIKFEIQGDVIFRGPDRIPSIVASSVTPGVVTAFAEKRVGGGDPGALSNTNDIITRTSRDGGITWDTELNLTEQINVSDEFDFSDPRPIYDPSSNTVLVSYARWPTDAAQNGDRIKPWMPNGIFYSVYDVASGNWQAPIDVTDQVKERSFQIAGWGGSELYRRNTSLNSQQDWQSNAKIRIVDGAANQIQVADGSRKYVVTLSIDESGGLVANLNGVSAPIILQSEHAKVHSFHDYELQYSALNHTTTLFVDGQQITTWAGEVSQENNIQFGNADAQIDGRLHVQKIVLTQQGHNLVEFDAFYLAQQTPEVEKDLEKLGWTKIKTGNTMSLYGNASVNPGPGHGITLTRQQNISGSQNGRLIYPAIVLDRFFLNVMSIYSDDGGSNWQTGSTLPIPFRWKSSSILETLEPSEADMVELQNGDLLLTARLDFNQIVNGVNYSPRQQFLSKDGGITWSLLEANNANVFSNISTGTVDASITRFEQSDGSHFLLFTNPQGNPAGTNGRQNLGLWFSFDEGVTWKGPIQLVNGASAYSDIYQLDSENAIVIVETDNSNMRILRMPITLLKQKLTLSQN", "assay": "Neuraminidase assay with fluorescent substrate 2'-(4-methylumbelliferyl)-α-D-N-acetylneuraminic acid", "assay_type": "biochemical", "details": "peramivir 0.25 and 2.5 μM; 24-48 hours; fluorescence ex 360 nm / em 465 nm", "protocol": "as §1"}},
  "data": [
    {"smiles": "CC(=O)N[C@H]1[C@H]([C@H](O)[C@H](O)CO)OC(C(=O)O)=C[C@@H]1N=C(N)N", "note": "[zanamivir]", "values": [
      {"measurement": "inhibition of biofilm production by PAO1", "setting": "PAO1 biofilm formation", "value": "dose dependent inhibition of biofilm production"}
    ]},
    {"smiles": "CCC(CC)[C@H](NC(C)=O)[C@@H]1[C@H](O)[C@@H](C(=O)O)C[C@H]1N=C(N)N", "note": "[peramivir]", "values": [
      {"measurement": "inhibition of biofilm production by PAO1", "setting": "PAO1 biofilm formation", "value": "dose dependent inhibition of biofilm production"},
      {"measurement": "inhibition of neuraminidase activity (PAO1 N'ase)", "setting": "[1]", "value": "inhibited"},
      {"measurement": "inhibition of neuraminidase activity (V. cholera N'ase)", "setting": "V. cholera neuraminidase", "value": "inhibited"}
    ]},
    {"smiles": "CCOC(=O)C1=C[C@@H](OC(CC)CC)[C@H](NC(C)=O)[C@@H](N)C1", "note": "[oseltamivir]", "values": [
      {"measurement": "inhibition of biofilm production by PAO1", "setting": "PAO1 biofilm formation", "value": "dose dependent inhibition of biofilm production"}
    ]}
  ]
}
